Experimental data as given in patent US20190374563A1, “TREATMENT OF KLEBSIELLA PNEUMONIAE INFECTIONS WITH ANTIBACTERIAL AMINOGLYCOSIDE COMPOUNDS” (Achaogen, Inc., priority 2009, published 2019).
Converted amounts (≈) assume the structure as drawn. Read-outs that look alike come from different tables or passages of the source.

Key:
Format in all cases: cell-based
[1] = tested on: multidrug-resistant (MDR) K. pneumoniae isolates (n = 102); test: MIC by microdilution, clinical isolates; conditions: for S (%), susceptible isolates: CLSI criteria, tigecycline US FDA criteria
Procedure: (§1) The in vitro activity of representative antibacterial aminoglycoside compounds against a collection of 102 K. pneumoniae clinical isolates collected from January 2006 to October 2007 at the University of Pittsburgh Medical Center, and three Cleveland institutions including University Hospitals Case Medical Center, the Cleveland Clinic, and the Louis Stokes Department of Veterans Affairs Medical Center was analyzed. The 102 K. pneumoniae isolates were selected based on a multidrug-resistant (MDR) phenotype (i.e., resistance to >3 antibiotic classes). Twenty-five isolates were KPC carbapenemase producing (KPC-Kp), and were part of a previous study where the β-lactamase background and clonality were characterized (see Endimiani, A., A. M. Hujer, F. Perez, C. R. Bethel, K. M. Hujer, J. Kroeger, M. Oethinger, D. L. Paterson, M. D. Adams, M. R. Jacobs, D. J. Diekema, G. S. Hall, S. G. Jenkins, L. B. Rice, F. C. Tenover, and R. A. Bonomo. 2009. Characterization of blaKPC-containing Klebsiella pneumoniae isolates detected in different institutions in the Eastern USA. J Antimicrob Chemother 63:427-37).
(§2) Minimum inhibitory concentrations (MICs) were performed by microdilution method using cation-adjusted Mueller-Hinton broth, according to the Clinical and Laboratory Standards Institute (CLSI) criteria (see CLSI. 2006. Methods for dilution antimicrobial susceptibility tests for bacteria that grow aerobically; approved standard-Seventh edition. Clinical and Laboratory Standard Institute, Wayne, Pa. CLSI document M7-A7). These MIC assays were conducted following the same protocol as set forth in Example 110. […] The following ATCC control strains were used: Escherichia coli ATCC 25922, Pseudomonas aeruginosa ATCC 27853, and K. pneumoniae ATCC 700603.

[2] = tested on: K. pneumoniae producing KPC (n = 25); test: MIC by microdilution, clinical isolates; conditions: for S (%), susceptible isolates: CLSI criteria, tigecycline US FDA criteria; for MIC50 / MIC90: Klebsiella pneumoniae
Procedure: as §1, §2

[3] = tested on: E. coli ATCC 25922 (AECO001); test: MIC assay, CLSI broth microdilution; conditions: Escherichia coli
In short: (§3)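 Broth microdilution per CLSI M7-A7, with serial two-fold compound dilutions in Mueller Hinton Broth mixed 1:1 with inoculum. Colonies from a previous-day agar plate were suspended in saline to a final 5×10^5 CFU/mL. Plates were incubated 20 hours at 35° C. in ambient air.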

[4] = tested on: P. aeruginosa ATCC 27853 (APAE001); test: MIC assay, CLSI broth microdilution; conditions: Pseudomonas aeruginosa, ATCC27853, read-out: MIC APAE001
In short: as §3

[5] = Total MDR K. pneumoniae isolates (n = 102)
[6] = K. pneumoniae producing KPC (n = 25)
[7] = Klebsiella pneumoniae, Total MDR K. pneumoniae isolates (n = 102), read-out: MIC50
[8] = Klebsiella pneumoniae, Total MDR K. pneumoniae isolates (n = 102), read-out: MIC90
[9] = K. pneumoniae producing KPC (n = 25), read-out: MIC50
[10] = K. pneumoniae producing KPC (n = 25), read-out: MIC90
[11] = ATCC25922, read-out: MIC AECO001

MIC50 [1, 7] | MIC90 [1, 8] | MIC50 [2, 9] | MIC90 [2, 10] | Structure (SMILES) | S (%), susceptible isolates [1, 5] | S (%), susceptible isolates [2, 6] | MIC [4] | MIC [3, 11] | also measured
 |  |  |  | CN(C)c1cc(NC(=O)CNC(C)(C)C)c(O)c2c1C[C@H]1C[C@H]3[C@H](N(C)C)C(O)=C(C(N)=O)C(=O)[C@@]3(O)C(O)=C1C2=O [Tigecycline, tigecycline] | 90.2% | 96.0% |  |  | MIC50 ([1]; Klebsiella pneumoniae): 1 µg/mL (≈ 1.71 µM); MIC90 ([1]; Klebsiella pneumoniae): 2 µg/mL (≈ 3.41 µM); S (%), susceptible isolates ([1]; Total MDR K. pneumoniae isolates (n = 102), listed as tigecycline): ~90%; MIC50 [2]: 1 µg/mL (≈ 1.71 µM); MIC90 [2]: 2 µg/mL (≈ 3.41 µM)
> 32 µg/mL | > 32 µg/mL | > 32 µg/mL | > 32 µg/mL | CC(C)(O/N=C(\C(=O)N[C@@H]1C(=O)N2C(C(=O)[O-])=C(C[n+]3ccccc3)CS[C@H]12)c1csc(N)n1)C(=O)O [Ceftazidime, ceftazidime] | 9.8% | 0.0% |  |  | MIC90 [1, 5]: >32 µg/mL
 |  |  |  | CN[C@@H]1[C@@H](O)[C@@H](O[C@@H]2[C@@H](O)[C@H](O[C@H]3OC(CNCC(O)CO)=CC[C@H]3N)[C@@H](N)C[C@H]2NC(=O)[C@@H](O)CCN)OC[C@]1(C)O (stereo partly drawn) [Example 19, 6′-(2-Hydroxy-propanol)-1-(4-amino-2(S)-hydroxy-butyryl)-sisomicin] |  |  | 1 to 16 µg/mL (≈ 1.61 to 25.7 µM) | < 1 µg/mL | 
 |  |  |  | CN[C@@H]1[C@@H](O)[C@@H](O[C@@H]2[C@@H](O)[C@H](O[C@H]3OC(CNC(=O)C(O)CN)=CC[C@H]3N)[C@@H](N)C[C@H]2NC(=O)[C@@H](O)CN)OC[C@]1(C)O (stereo partly drawn) [Example 20, 6′-(3-Amino-2-hydroxy-propionyl)-1-(3-amino-2(S)-hydroxy-propionyl)-sisomicin] |  |  | > 16 µg/mL | > 16 µg/mL | 
 |  |  |  | CN[C@@H]1[C@@H](O)[C@@H](O[C@@H]2[C@@H](O)[C@H](O[C@H]3OC(CNC[C@H](O)CO)=CC[C@H]3N)[C@@H](N)C[C@H]2NC(=O)[C@@H](O)CCN)OC[C@]1(C)O [Example 28, 6′-(2(S)-Hydroxy-propanol)-1-(4-amino-2(S)-hydroxy-butyryl)-sisomicin] |  |  | 1 to 16 µg/mL (≈ 1.61 to 25.7 µM) | 1 to 16 µg/mL (≈ 1.61 to 25.7 µM) | 
32 µg/mL (≈ 68.4 µM) | ≥ 64 µg/mL | 32 µg/mL (≈ 68.4 µM) | ≥ 64 µg/mL | NC[C@H]1O[C@H](O[C@H]2[C@H](O)[C@@H](O[C@H]3O[C@H](CO)[C@@H](O)[C@H](N)[C@H]3O)[C@H](N)C[C@@H]2N)[C@H](N)C[C@@H]1O [Tobramycin, tobramycin] | 10.8% | 8.0% |  |  | MIC90 [1, 5]: ≥64 µg/mL; S (%), susceptible isolates ([2]; K. pneumoniae producing KPC (n = 25), listed as tobramycin): 8%
 |  |  |  | CNCC1=CC[C@@H](NC(=N)N)[C@@H](O[C@H]2[C@H](O)[C@@H](O[C@H]3OC[C@](C)(O)[C@H](NC)[C@H]3O)[C@H](N)C[C@@H]2N)O1 [Example 108, 6′-Methyl-2′-guanidinium-sisomicin] |  |  | 1 to 16 µg/mL (≈ 1.99 to 31.8 µM) | < 1 µg/mL | 
 |  |  |  | CN[C@@H]1[C@@H](O)[C@@H](O[C@@H]2[C@@H](O)[C@H](O[C@H]3OC(CNCC4CCNCC4)=CC[C@H]3N)[C@@H](N)C[C@H]2NC(=O)[C@H](O)CN)OC[C@]1(C)O [Example 8, 6′-Methyl-piperidinyl-1-(3-amino-2(R)-hydroxy-propionyl)-sisomicin] |  |  | 1 to 16 µg/mL (≈ 1.58 to 25.3 µM) | < 1 µg/mL | 
 |  |  |  | CN[C@@H]1[C@@H](O)[C@@H](O[C@@H]2[C@@H](O)[C@H](O[C@H]3OC(CNCC4CCNCC4)=CC[C@H]3N)[C@@H](N)C[C@H]2NC(=O)[C@H](O)CCN)OC[C@]1(C)O [Example 4, 6′-(Methyl-piperidin-4-yl)-1-(4-amino-2(R)-hydroxy-butyryl)-sisomicin] |  |  | 1 to 16 µg/mL (≈ 1.55 to 24.8 µM) | 1 to 16 µg/mL (≈ 1.55 to 24.8 µM) | 

Structure (SMILES) | MIC50 [1, 7] | MIC90 [1, 8] | MIC50 [2, 9] | MIC90 [2, 10] | S (%), susceptible isolates [1, 5] | S (%), susceptible isolates [2, 6] | MIC [4] | MIC [3, 11] | also measured
C[C@@H](O)[C@H]1C(=O)N2C(C(=O)O)=C(SCCN=CN)C[C@H]12 [Imipenem, imipenem] | 0.5 µg/mL (≈ 1.67 µM) | 8 µg/mL (≈ 26.7 µM) | 8 µg/mL (≈ 26.7 µM) | > 16 µg/mL | 75.5% | 12.0% |  |  | S (%), susceptible isolates ([1]; Total MDR K. pneumoniae isolates (n = 102), listed as imipenem): approximately 75%; MIC ([3]; ATCC25922): 0.125 µg/mL (≈ 0.418 µM)
